Laboratory results from the NIST ThermoML archive (doi:10.1016/j.jct.2007.02.004).

How the values were obtained:
[1] = 293.15 K; 101.33 kPa; Liquid
[2] = refractive index (Na D-line) (dimensionless); settings: 293.15 K; 101.33 kPa; Liquid; Standard Abbe refractometry
[3] = xn = mol fraction of the nth substance listed; settings: 101 kPa, Liquid

CC(=O)c1ccccc1 [acetophenone]
Settings | mass density [kg/m3] | refractive index
[1] | 1027.93 | –
[2] | – | 1.5336

CC(=O)c1ccccc1 [acetophenone] + CCCCCCO
mass density [kg/m3], [3]
Settings | 293.15 K | 303.15 K | 313.15 K | 323.15 K
x1 = 0.0498 | 828.67 | 821.42 | 813.97 | 806.47
x1 = 0.1009 | 838.84 | 831.49 | 823.85 | 816.28
x1 = 0.1517 | 848.99 | 841.56 | 833.75 | 826.11
x1 = 0.2106 | 860.83 | 853.32 | 845.32 | 837.59
x1 = 0.2474 | 868.27 | 860.71 | 852.58 | 844.8
x1 = 0.3028 | 879.54 | 871.9 | 863.61 | 855.74
x1 = 0.3426 | 887.68 | 879.99 | 871.57 | 863.65
x1 = 0.3978 | 899.04 | 891.28 | 882.7 | 874.71
x1 = 0.4512 | 910.1 | 902.26 | 893.55 | 885.48
x1 = 0.4985 | 919.95 | 912.05 | 903.23 | 895.1
x1 = 0.5526 | 931.29 | 923.31 | 914.38 | 906.19
x1 = 0.6071 | 942.79 | 934.73 | 925.7 | 917.44
x1 = 0.6491 | 951.7 | 943.59 | 934.49 | 926.17
x1 = 0.7101 | 964.72 | 956.53 | 947.35 | 938.95
x1 = 0.7485 | 972.96 | 964.73 | 955.5 | 947.06
x1 = 0.8019 | 984.49 | 976.21 | 966.9 | 958.4
x1 = 0.8521 | 995.4 | 987.06 | 977.72 | 969.16
x1 = 0.9045 | 1006.85 | 998.46 | 989.09 | 980.48
x1 = 0.9554 | 1018.05 | 1009.61 | 1000.23 | 991.56

CC(=O)c1ccccc1 [acetophenone] + CCOC(=O)OCC
mass density [kg/m3], [3]
Settings | 293.15 K | 303.15 K | 313.15 K | 323.15 K
x2 = 0.0511 | 1025.44 | 1016.4 | 1007.58 | 998.79
x2 = 0.1014 | 1023.08 | 1014.09 | 1005.19 | 996.27
x2 = 0.1501 | 1020.74 | 1011.77 | 1002.73 | 993.68
x2 = 0.1996 | 1018.43 | 1009.35 | 1000.2 | 991.08
x2 = 0.2465 | 1016.19 | 1007.04 | 997.78 | 988.56
x2 = 0.3041 | 1013.28 | 1004.02 | 994.63 | 985.24
x2 = 0.3467 | 1011.14 | 1001.78 | 992.31 | 982.8
x2 = 0.4001 | 1008.46 | 998.99 | 989.35 | 979.74
x2 = 0.4507 | 1005.87 | 996.27 | 986.55 | 976.77
x2 = 0.4888 | 1003.88 | 994.18 | 984.35 | 974.49
x2 = 0.5506 | 1000.64 | 990.73 | 980.71 | 970.76
x2 = 0.6038 | 997.77 | 987.73 | 977.48 | 967.47
x2 = 0.6498 | 995.25 | 985.06 | 974.69 | 964.54
x2 = 0.7104 | 991.92 | 981.54 | 971.04 | 960.63
x2 = 0.7513 | 989.53 | 979.05 | 968.47 | 957.86
x2 = 0.8078 | 986.29 | 975.68 | 964.89 | 954.13
x2 = 0.8522 | 983.66 | 972.91 | 961.99 | 951.07
x2 = 0.8993 | 980.83 | 969.91 | 958.99 | 947.76
x2 = 0.9488 | 977.82 | 966.78 | 955.63 | 944.32

CCOC(=O)OCC [diethyl carbonate]
Settings | mass density [kg/m3] | refractive index
[1] | 974.65 | –
[2] | – | 1.3845

CCOC(=O)OCC [diethyl carbonate] + CCCCCCO
mass density [kg/m3], [3]
Settings | 293.15 K | 303.15 K | 313.15 K | 323.15 K
x1 = 0.0502 | 825.96 | 818.55 | 811.04 | 803.29
x1 = 0.1123 | 834.86 | 827.16 | 819.37 | 811.3
x1 = 0.1499 | 840.29 | 832.48 | 824.54 | 816.2
x1 = 0.2103 | 849.1 | 841.04 | 832.78 | 824.2
x1 = 0.2508 | 855.05 | 846.79 | 838.35 | 829.57
x1 = 0.3121 | 864.19 | 855.69 | 846.97 | 837.88
x1 = 0.3576 | 871.02 | 862.23 | 853.42 | 844.05
x1 = 0.4113 | 879.15 | 870.21 | 861.12 | 851.48
x1 = 0.4632 | 887.08 | 877.88 | 868.59 | 858.73
x1 = 0.5111 | 894.51 | 885.13 | 875.61 | 865.59
x1 = 0.552 | 900.88 | 891.35 | 881.55 | 871.51
x1 = 0.6008 | 908.59 | 898.87 | 888.91 | 878.65
x1 = 0.6498 | 916.39 | 906.42 | 896.35 | 885.85
x1 = 0.7108 | 926.19 | 915.93 | 905.65 | 894.96
x1 = 0.7554 | 933.45 | 923.08 | 912.55 | 901.77
x1 = 0.8112 | 942.65 | 932.03 | 921.16 | 910.41
x1 = 0.8501 | 949.13 | 938.29 | 927.49 | 916.42
x1 = 0.9002 | 957.5 | 946.57 | 935.57 | 924.3
x1 = 0.9555 | 966.89 | 955.77 | 944.49 | 933.24

CCCCCCO [hexan-1-ol]
Settings | mass density [kg/m3] | refractive index
[1] | 818.84 | –
[2] | – | 1.4178
